Patent US20150283127A1, “SAQUINAVIR-NO FOR IMMUNOMODULATION” (ONCONOX APS, priority 2012, published 2015)

Legend:
[1] = test system: murine SPC; assay: Cytokine generation (ELISA) in ConA-stimulated murine SPC; format: cell-based, mouse; details: for Effects on cytokines at low concentrations: unfractionated spleen cells and/or purified murine CD4 T cells, concentrations of 2.5 and 5 mM
Source text: Experimental animals (C57BL/6 mice, BALB/c mice and Dark Agouti rats) were obtained from the Animal House Facility of the Institute for Biological Research “Sinisa Stanković”, Belgrade, Serbia. Spleen cells (SPC) were isolated from murine spleens and lymph node cells (LNC) were obtained from rat cervical lymph nodes of untreated animals. Draining lymph node cells (DLNC) were obtained from popliteal lymph nodes 8-10 days after immunization of rats with myelin basic protein (guinea pig MBP, kind gift from professor Alexander Fluegel, University of Goettingen, Germany) and complete Freund's adjuvant (CFA, Difco, Detroit, Mich.). The organs were mechanically disrupted, passed through 40-μm nylon mesh filter and the resulting suspension was collected by centrifugation. Red blood cells from single cell suspensions obtained from spleens were lysed using RBC Lysis Buffer (eBioscience, San Diego, Calif.). CD4+ cells were purified from SPC using biotin conjugated antibody specific for CD4 (eBioscience) and IMag SAv particles plus (BD Biosciences, San Diego, Calif.). Obtained purity of CD4 population was more than 97% as determined by flow cytometry. SPC and LNC were seeded at 5×10^6/ml/well, DLNC at 2.5×10^6/ml/well and CD4+ cells at 1×10^6/ml/well of 24-well plates. Cells infiltrating spinal cords (SC) were obtained from SC of rats immunized with MBP+CFA at the time when rats suffered from severe clinical signs of experimental autoimmune encephalomyelitis (EAE). Rats were perfused with sterile PBS, SC were homogenized, adjusted to 30% Percoll (Sigma-Aldrich) and overlaid on 70% Percoll gradient. Following centrifugation at 870 g for 50 min the SC cells (SCC) were recovered from the […] Percoll interface and washed in RPMI-1640 medium. SCC were seeded at 0.5×106/200 μl/well of 96-well plates. SPC and LNC were stimulated with 2.5 μg/ml concanavalin A (ConA, Sigma-Aldrich), DLNC with MBP (10 ng/ml), CD4+ cells with anti-CD3 and anti-CD28 antibody (1 μg/ml each, both from eBioscience) and SCC were left untreated.
Cytokine concentration in cell culture supernatants was determined by sandwich ELISA using MaxiSorp plates (Nunc, Rochild, Denmark) and anti-cytokine paired antibodies according to the manufacturer's instructions. Samples were analyzed in duplicate for murine/rat IL-17, murine IL-10, murine TNF, murine IL-4 (eBioscience), murine IFN-γ, rat IFN-γ, rat IL-4 (R&D, Minneapolis, Minn.), rat IL-10 and rat TNF (BD Biosciences). The results were calculated using standard curves made on the basis of known concentrations of the appropriate recombinant cytokines.
In order to investigate the potential of Saq-NO to modulate cytokine production in immune cells, rat LNC were stimulated with ConA in the presence of various concentrations of Saq-NO for 24 hours and the levels of IFN-g, IL-4, IL-17, IL-10 and TNF were determined in cell-free culture supernatants. […] Effects of Saq-NO on the cytokine generation were examined in murine SPC, as well. Here, Saq-NO was applied in parallel with Saq and their influence on the cytokine generation and cell viability was compared. Further, two strains of mice were used, i.e. BALB/c and C57BL/6 mice which are prototypical Th2 and Th1 mice, respectively (Lohoff et al., 1998). […] Moreover, the influence of Saq-NO on the cytokines was evident with concentrations of the agent that had no effect on SPC viability (FIG. 2).

[2] = test system: MOG-induced EAE; assay: MOG-induced EAE in C57Bl6 mice; format: in vivo; details: for Clinical course of the disease: day 7 to 30; for Disease after interruption of the late prophylactic treatment: observed for further 11 days
Source text: (§1) Seven to 8 weeks-old male C57Bl6 mice and 6 to 7 weeks-old female SJL mice (Harlan Laboratories srl, San Pietro al Natisone, Udine, Italy) were used in the experiments. They were kept under standard laboratory conditions (non specific pathogen free) with free access to food (Harlan Global Diet 2018) and water and were allowed to adapt at least one week to their environment before commencing the study.
MOG35-55 was synthesized by Genemed synthesis (San Francisco Calif.). The mice were immunized with 200 μg MOG emulsified in CFA with 1 mg of Mycobacterium tuberculosis H37RA (Difco, Detroit, Mich., USA) to make a 1:1 emulsion. Each mouse received subcutaneous injections of 200 μl emulsion divided among two sites draining into the axillary lymph nodes. Pertussis toxin (Calbiochem, Nottingham, UK) was used as a coadjuvant and was administered i.p. at the dose of 200 ng/mouse on day 0 and 2 post immunization. The mice were observed every day by measuring their body weights and clinical signs of EAE until 30 days after immunization. These clinical grading were carried out by an observer unaware of the treatment: 0=no sign of disease; 0.5=partial tail paralysis; 1=tail paralysis; 1.5=tail paralysis+partial unilateral hindlimb paralysis; 2=tail paralysis+hindlimb weakness or partial hindlimb paralysis; 2.5=tail paralysis+partial hindlimb paralysis (lowered pelvi); 3=tail paralysis+complete hindlimb paralysis; 3.5=tail paralysis+complete hindlimb paralysis+incontinence; 4=tail paralysis+hindlimb paralysis+weakness or partial paralysis of forelimbs; 5=moribund or dead.
The study involved 4 groups of 10 animals each. All the groups were immunized with the MOG35-55 peptide in CFA and pertuxis toxin, according to the immunization procedure described above and assigned to the following treatments:
The late prophylactic treatment started on day 7 immunization and continued until day 30; the therapeutic regime started at the onset of the disease and continued for 23 consecutive days.

[3] = test system: PLP-induced EAE; assay: PLP-induced EAE in SJL mice; format: in vivo
Source text: as §1
PLP (139-151) was synthesized by Genemed synthesis (San Francisco Calif.). EAE was induced as described by J. St. Louis et al. (4). The mice were immunized with 75 μg PLP emulsified in CFA with 6 mg/ml Mycobacterium tuberculosis H37RA (Difco, Detroit, Mich., USA) to make a 1:1 emulsion. Each mouse received subcutaneous injections of 200 μl emulsion divided among four sites draining into the axillary and inguinal lymph nodes. Pertussis toxin (Calbiochem, Nottingham, UK) was used as a co-adjuvant and was administered i.p. at the dose of […] on day 0 and 2 post immunization. The mice were observed every day by measuring their body weights and clinical signs of EAE until 30 days after immunization. These clinical grading were carried out by an observer unaware of the treatment: 0=no sign of disease; 0.5=partial tail paralysis; 1=tail paralysis; 1.5=tail paralysis+partial unilateral hindlimb paralysis; 2=tail paralysis+hindlimb weakness or partial hindlimb paralysis; 2.5=tail paralysis+partial hindlimb paralysis (lowered pelvi); 3=tail paralysis+complete hindlimb paralysis; 3.5=tail paralysis+complete hindlimb paralysis+incontinence; 4=tail paralysis+hindlimb paralysis+weakness or partial paralysis of forelimbs; 5=moribund or dead.
Four groups of 7/8 mice were treated under a late prophylactic regime from day 7 to day 30 as follow:
Group 1: Saquinavir 10 mg/Kg (i.p. once daily)
Group 2: Saq-NO 10 mg/Kg (s.c. once daily)
Group 3: Saq-NO 20 mg/Kg (i.p. once daily)
Group 4: DMSO/H2O (vehicle) (i.p. once daily)

[4] = late prophylactic treatment, 10 mg/Kg i.p. daily
[5] = late prophylactic, 10 mg/Kg once daily

SMILES | Effects on cytokines at low concentrations [1] | Clinical course of the disease [2, 4] | Disease after interruption of the late prophylactic treatment [2] | Cumulative score and duration of the disease compared to vehicle treated mice [3, 5] | Production of IFN-g, IL-4, IL-17, TNF ([1]; murine SPC) | Production of IL-10 ([1]; murine SPC) | Effect on the release of IFN-g, IL-4, IL-17, IL-10 and TNF, compared with Saq ([1]; murine SPC of BALB/c and C57BL/6 mice, ConA) | Cumulative score and duration of the disease compared to vehicle treated mice ([2]; full therapeutic regime, 10 mg/Kg i.p. daily from onset, 23 days) | Time after treatment interruption to reach the clinical score of vehicle treated mice ([2]; late prophylactic treatment interrupted) | Cumulative score and duration of the disease compared to vehicle treated mice [2, 4] | Clinical course of the disease ([3]; late prophylactic, 10 mg/Kg once daily, day 7 to 30) | Cum score and duration compared to vehicle-treated mice ([3]; late prophylactic, high dose 20 mg/Kg i.p. once daily) | Disease after interruption of the treatment ([3]; observed for further 20 days)
CC(C)(C)NC(=O)[C@@H]1C[C@@H]2CCCC[C@@H]2CN1C[C@@H](O)[C@H](Cc1ccccc1)NC(=O)[C@H](CC(N)=O)NC(=O)c1ccc2ccccc2n1 [Saq, (2S)—N-[(2S,3R)-4-[(3S)-3-(tert-butylcarbamoyl)-decahydroisoquinolin-2-iy]-3-hydroxy-1-phenylbutan-2-il]-2-(quinolin-2-ylformamido)butanediamide, reference compound] | No effects | slightly reduced | maintained the same severity of the disease | lower but not significant | – | – | – | – | – | – | – | – | –
CC(C)(C)NC(=O)C1C[C@@H]2CCCC[C@@H]2CN1CC(O[N+](=O)[O-])[C@H](Cc1ccccc1)NC(=O)C(CC(N)=O)NC(=O)c1ccc2ccccc2n1 (some centres unmarked) [Saq-NO, nitric ester of Saquinavir] | already observable | ameliorated | developed a strong disease | significantly lower | inhibited | stimulated | more profound effect | significant reduction | ≤ 9 days | significantly lower | ameliorated | lower but not significant | most evidently
